Where only a bound is given, the exact number is not on record here.

The term Ki denotes the equilibrium dissociation constant of an inhibitor or competing ligand from its target. As a reminder, the IC50 is the midpoint of a concentration-inhibition curve.

The target of assay [1] is memapsin 2 (Homo sapiens, UniProt P56817). As to the kind of experiment: Inhibition of memapsin 2 beta-secretase activity (fluorogenic substrate FS-2). It counts as biochemical. Conditions: pH 4, 37° C., read-out: M2 Ki. How it is done: Potency of compounds were determined by measurement of their inhibition of memapsin 2 activity toward a fluorescent substrate. Kinetic inhibition experiments were performed using the procedure as described in Ermolieff, et al. (Biochemistry 39:12450-12456 (2000), the teachings of which are incorporated hereby in their entirety). Briefly, assays were performed at pH 4, 37° C., by pre-incubation of memapsin 2 enzyme with compound for 20 minutes. Activity measurements were initiated by addition of a fluorogenic substrate FS-2 (Bachem Americas, Torrance, Calif.) MCA-SEVNLDAEFR-DNP (SEQ ID NO.: 2). The substrate was derived from 10 amino acids of the human amyloid precursor protein (APP), with the Swedish variant amino acids at the beta-secretase cleavage site. The terminal amino acid was modified from arginine to lysine to facilitate derivatization with a functional group for detection by autofluorescence. The amino acid sequence of the “core” peptide of the substrate is SEVNLDAEFK (SEQ ID NO.: 3). The amino terminus was derivatized with (7-methoxycoumarin-4-yl)acetyl (MCA), and the epsilon amine of the lysine side chain of the terminal residue (K in sequence SEVNLDAEFK (SEQ ID NO.: 3)) was derivatized with 2,4-dinitorphenyl (DNP).
Sequence of memapsin 2 (Homo sapiens, UniProt P56817) (P56817 46-501): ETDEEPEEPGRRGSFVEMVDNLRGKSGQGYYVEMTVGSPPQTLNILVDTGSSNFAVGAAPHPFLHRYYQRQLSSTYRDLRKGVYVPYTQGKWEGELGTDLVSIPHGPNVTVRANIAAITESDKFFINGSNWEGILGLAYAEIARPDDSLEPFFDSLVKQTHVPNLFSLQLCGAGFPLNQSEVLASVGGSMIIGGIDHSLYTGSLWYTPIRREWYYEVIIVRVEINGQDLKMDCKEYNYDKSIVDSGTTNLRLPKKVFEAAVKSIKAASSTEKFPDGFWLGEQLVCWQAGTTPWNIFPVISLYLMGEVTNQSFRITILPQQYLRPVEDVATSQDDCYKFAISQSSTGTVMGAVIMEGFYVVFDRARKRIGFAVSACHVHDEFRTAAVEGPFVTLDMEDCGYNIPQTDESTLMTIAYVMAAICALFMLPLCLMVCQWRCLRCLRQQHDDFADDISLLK

The target in assay [2] is T1, memapsin 2 (Cricetulus griseus, UniProt G3IAK4).
T1 construct: endogenous in cells; host or cells: Chinese hamster ovary cells over-expressing human APP695 (London + Swedish)
T1 sequence (G3IAK4 22-501): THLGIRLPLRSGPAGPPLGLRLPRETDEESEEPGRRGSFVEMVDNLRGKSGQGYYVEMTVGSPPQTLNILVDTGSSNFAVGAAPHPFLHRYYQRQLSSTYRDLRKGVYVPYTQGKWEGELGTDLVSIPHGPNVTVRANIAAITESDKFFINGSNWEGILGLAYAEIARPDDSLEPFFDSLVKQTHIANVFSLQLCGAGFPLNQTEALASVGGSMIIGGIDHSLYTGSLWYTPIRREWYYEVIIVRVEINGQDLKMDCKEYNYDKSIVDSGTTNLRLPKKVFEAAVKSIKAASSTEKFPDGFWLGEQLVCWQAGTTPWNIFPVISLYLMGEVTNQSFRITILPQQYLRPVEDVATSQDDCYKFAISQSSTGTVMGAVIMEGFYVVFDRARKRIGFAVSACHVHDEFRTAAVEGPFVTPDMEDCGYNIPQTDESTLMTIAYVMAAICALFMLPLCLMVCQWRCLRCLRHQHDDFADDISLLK
As to the kind of experiment: Cellular Aβ IC50 determination (Aβ40 sandwich ELISA). In kind it is cell-based, Chinese hamster. The conditions noted are these: CHO cells over-expressing human APP695 with London and Swedish mutations, 24 h, read-out: M2 IC50. The procedure: The potency of compounds against memapsin 2 activity was determined in a cellular assay of Aβ production. […] Chinese hamster ovary cells that over-express human APP695 with the London and Swedish mutations were seeded in multi-well plates at 10% confluency. Compounds are dissolved in DMSO to concentrations near 1 mM, and diluted into culture media to a final concentration near 4 μM (final 0.4% DMSO). Compounds were diluted serially and applied to cells in multi-well plates 48 h after seeding. Incubation was continued in 5% CO2 at 37° C. for 24 h. Aliquots were removed and assayed for […] using a sandwich ELISA (BioSource International). Amount of Aβ40 over the range of concentration of compounds, relative to control incubations, were fit to a 4-parameter IC50 model.
(An ELISA detects its analyte on a solid surface through an enzyme-linked reagent.)

Take `Cc1csc(CN(C)C(=O)c2cccc(C(=O)N[C@@H](Cc3ccccc3)[C@H](O)[C@H]3CCCN3C(=O)OC(C)(C)C)c2)n1` [1-1, (R)-tert-butyl 2-((1S,2S)-1-hydroxy-2-(3-(methyl((4-methylthiazol-2-yl)methyl)carbamoyl)benzamido)-3-phenylpropyl)pyrrolidine-1-carboxylate]: the Ki in assay [1] was more than 750 nM. Moreover, the IC50 in assay [2] was more than 1000 nM.

Turning to `Cc1csc(CN(C)C(=O)c2cccc(C(=O)N[C@@H](Cc3ccccc3)[C@H](O)[C@H]3CCCN3)c2)n1` [1-2, N1-((1R,2S)-1-hydroxy-3-phenyl-1-((R)-pyrrolidin-2-yl)propan-2-yl)-N3-methyl-N3-((4-methylthiazol-2-yl)methyl)isophthalamide], the Ki in assay [1] is 250 to 750 nM. Also, in assay [2], the IC50 is more than 1000 nM.

As for `Cc1coc([C@H]2CCCN2C(=O)c2cccc(C(=O)N[C@@H](Cc3ccccc3)[C@H](O)[C@H]3CCCN3)c2)n1` [1-4, N-((1R,2S)-1-hydroxy-3-phenyl-1-((R)-pyrrolidin-2-yl)propan-2-yl)-3-((R)-2-(4-methyloxazol-2-yl)pyrrolidine-1-carbonyl)benzamide], in assay [1], the Ki fell in the range of 250 to 750 nM. In addition, the IC50 in assay [2] is more than 1000 nM.

Take `C[C@@H](NC(=O)c1cc(C(=O)N[C@@H](Cc2ccccc2)[C@H](O)[C@H]2CCCN2C(=O)OC(C)(C)C)cc(N(C)S(C)(=O)=O)c1)c1ccccc1` [1-5, (R)-tert-butyl 2-((1S,2S)-1-hydroxy-2-(3-(N-methylmethylsulfonamido)-5-((R)-1-phenylethylcarbamoyl)benzamido)-3-phenylpropyl)pyrrolidine-1-carboxylate]: in assay [1], the Ki is more than 750 nM. The IC50 in assay [2] was more than 1000 nM.

On to `Cc1cc(C(=O)N[C@@H](Cc2ccccc2)[C@H](O)[C@H]2CCCN2C(=O)OC(C)(C)C)cc(C(=O)N2CCC[C@@H]2c2nc(C)co2)c1` [1-6, (R)-tert-butyl 2-((1S,2S)-1-hydroxy-2-(3-methyl-5-((R)-2-(4-methyloxazol-2-yl)pyrrolidine-1-carbonyl)benzamido)-3-phenylpropyl)pyrrolidine-1-carboxylate], for which, in assay [1], the Ki is more than 750 nM. In addition, the IC50 in assay [2] was more than 1000 nM.

As for `Cc1csc(CN(C)C(=O)c2cc(C(=O)N[C@@H](Cc3ccccc3)[C@H](O)[C@H]3CCCN3C(=O)OC(C)(C)C)cc(-c3ncco3)c2)n1` [1-7, (R)-tert-butyl 2-((1S,2S)-1-hydroxy-2-(3-(methyl((4-methylthiazol-2-yl)methyl)carbamoyl)-5-(oxazol-2-yl)benzamido)-3-phenylpropyl)pyrrolidine-1-carboxylate], in assay [1], the inhibition constant Ki is more than 750 nM. Besides, in assay [2], the IC50 was more than 1000 nM.

For the compound `Cc1csc(CN(C)C(=O)c2cccc(C(=O)N[C@@H](Cc3ccccc3)[C@H](O)[C@H]3C[C@@H](O)CN3)c2)n1` [1-10, N1-((1R,2S)-1-hydroxy-1-((2R,4R)-4-hydroxypyrrolidin-2-yl)-3-phenylpropan-2-yl)-N3-methyl-N3-((4-methylthiazol-2-yl)methyl)isophthalamide], the Ki in assay [1] is 250 to 750 nM. Also, the half-maximal inhibitory concentration (IC50) in assay [2] was more than 1000 nM.

`Cc1coc([C@H]2CCCN2C(=O)c2cc(C(=O)N[C@@H](Cc3ccccc3)[C@H](O)[C@H]3CCCN3)cc(-c3cnccn3)c2)n1` [1-21, N-((1R,2S)-1-hydroxy-3-phenyl-1-((R)-pyrrolidin-2-yl)propan-2-yl)-3-((R)-2-(4-methyloxazol-2-yl)pyrrolidine-1-carbonyl)-5-(pyrazin-2-yl)benzamide]: the Ki in assay [1] is less than 250 nM. Also, the IC50 in assay [2] was less than 500 nM.

Turning to `Cc1coc([C@H]2CCCN2C(=O)c2cc(C(=O)N[C@@H](Cc3ccccc3)[C@H](O)[C@H]3CCCN3)cc(-c3ccccn3)c2)n1` [1-24, N-((1R,2S)-1-hydroxy-3-phenyl-1-((R)-pyrrolidin-2-yl)propan-2-yl)-3-((R)-2-(4-methyloxazol-2-yl)pyrrolidine-1-carbonyl)-5-(pyridin-2-yl)benzamide], in assay [1], the Ki was less than 250 nM. Also, in assay [2], the IC50 is less than 500 nM.

On to `Cc1csc(CN(C)C(=O)c2cc(C(=O)N[C@@H](Cc3ccccc3)[C@H](O)[C@H]3CCCN3)cc(N(C)S(C)(=O)=O)c2)n1` [1-27, N1-((1R,2S)-1-hydroxy-3-phenyl-1-((R)-pyrrolidin-2-yl)propan-2-yl)-N3-methyl-5-(N-methylmethylsulfonamido)-N3-((4-methylthiazol-2-yl)methyl)isophthalamide], for which, in assay [1], the Ki was 250 to 750 nM. Further, in assay [2], the IC50 is less than 500 nM.

In the case of `Cc1csc([C@H]2CCCN2C(=O)c2cc(C(=O)N[C@@H](Cc3ccccc3)[C@H](O)[C@H]3CCCN3)cc(N(C)C)c2)n1` [1-42, 3-(dimethylamino)-N-((1R,2S)-1-hydroxy-3-phenyl-1-((R)-pyrrolidin-2-yl)propan-2-yl)-5-((R)-2-(4-methylthiazol-2-yl)pyrrolidine-1-carbonyl)benzamide], the Ki in assay [1] was in the range of 250 to 750 nM. Further, the IC50 in assay [2] was more than 1000 nM.

Take `Cc1csc([C@H]2CCCN2C(=O)c2cc(CF)cc(C(=O)N[C@H](Cc3ccccc3)[C@H](O)[C@H]3C[C@@H](OCc4ccccc4)CN3)c2)n1` [1-45, N-((1R,2R)-1-((2R,4R)-4-(benzyloxy)pyrrolidin-2-yl)-1-hydroxy-3-phenylpropan-2-yl)-3-(fluoromethyl)-5-((R)-2-(4-methylthiazol-2-yl)pyrrolidine-1-carbonyl)benzamide]: the Ki in assay [1] is more than 750 nM. Besides, in assay [2], the IC50 is more than 1000 nM.

On to `Cc1csc([C@H]2CCCN2C(=O)c2cc(C(=O)N[C@@H](Cc3ccccc3)[C@H](O)[C@H]3CCCN3)cc(N3CCC(F)(F)CC3)c2)n1` [1-46, 3-(4,4-difluoropiperidin-1-yl)-N-((1R,2S)-1-hydroxy-3-phenyl-1-((R)-pyrrolidin-2-yl)propan-2-yl)-5-((R)-2-(4-methylthiazol-2-yl)pyrrolidine-1-carbonyl)benzamide], for which the Ki in assay [1] is 250 to 750 nM. Further, in assay [2], the IC50 was 500 to 1000 nM.

Turning to `Cc1csc([C@H]2CCCN2C(=O)c2cccc(C(=O)N[C@@H](Cc3ccccc3)[C@H](O)[C@H]3C[C@H](F)CN3)c2)n1` [1-47, N-((1R,2S)-1-((2R,4S)-4-fluoropyrrolidin-2-yl)-1-hydroxy-3-phenylpropan-2-yl)-3-((R)-2-(4-methylthiazol-2-yl)pyrrolidine-1-carbonyl)benzamide], the Ki in assay [1] fell in the range of 250 to 750 nM. The IC50 in assay [2] was more than 1000 nM.

On to `CO[C@H]1CN[C@@H]([C@H](O)[C@H](Cc2ccccc2)NC(=O)c2cccc(C(=O)N3CCC[C@@H]3c3nc(C)cs3)c2)C1` [1-82, N-((1S,2S)-1-hydroxy-1-((2R,4R)-4-methoxypyrrolidin-2-yl)-3-phenylpropan-2-yl)-3-((R)-2-(4-methylthiazol-2-yl)pyrrolidine-1-carbonyl)benzamide], for which the Ki in assay [1] was less than 250 nM.

`CCCN(CCC)C(=O)c1cccc(C(=O)N[C@@H](Cc2ccccc2)[C@H](O)[C@H]2CCCN2)c1` [2-12, N1-((1R,2S)-1-hydroxy-3-phenyl-1-((R)-pyrrolidin-2-yl)propan-2-yl)-N3,N3-dipropylisophthalamide, reference compound]: in assay [1], the Ki was more than 750 nM.

Consider `O=C(N[C@@H](Cc1ccccc1)[C@H](O)[C@H]1CCCN1)c1cccc(CN2CCCC2=O)c1` [2-13, N-((1R,2S)-1-hydroxy-3-phenyl-1-((R)-pyrrolidin-2-yl)propan-2-yl)-3-((2-oxopyrrolidin-1-yl)methyl)benzamide, reference compound], for which the Ki in assay [1] is more than 750 nM.

The values above are taken from patent US20120214802A1, “PYRROLIDINE COMPOUNDS WHICH INHIBIT BETA-SECRETASE ACTIVITY AND METHODS OF USE THEREOF” (priority 2009, published 2012).
